pIC50: −log10 of the molar value.
How the values were obtained:
[1] = test system: orthotopic CT26-FL3 tumors; test: Orthotopic colon tumor growth inhibition and survival; assay type: in vivo, Balb/c mice; conditions: i.v. four times every other day, Q 3 mg/kg, A 9 mg/kg
Experimental: An orthotopic CT26-FL3 colorectal tumor model was established in female Balb/c mice as reported previously. Song et al., 2018. Twenty-eight tumor-bearing mice were divided into seven random groups: PBS, free Q (Q-F), free A (A-F), combination of free Q and A (QA-F), Q-M, A-M and QA-M. Formulations were intravenously injected to mice once every 2 days by total four injections (i.v.) with a Q dose of 3 mg/kg and A dose of 9 mg/kg. Mice in PBS groups were injected with PBS as control. The tumor burden was detected by intraperitoneal (i.p.) injection of 100 μL of D-luciferin (Pierce™, 20 mg/mL) followed by bioluminescent analysis using an IVIS® Kinetics Optical System (Perkin Elmer, Calif.). The tumor growth and body weight of mice were recorded every 2 days. The increment of tumor volume was calculated as luminescence intensities and normalized to the original value on the first day of measurement (Vt/V0). Body weight of mice in each group was documented. Nine days after the last injection, mice were sacrificed and the tumor, heart, liver, spleen, lung and kidney tissues were removed and used for the present study. Blood samples were collected from the orbital plexus into heparinized tubes and then centrifuged at 5,000 rpm for five minutes to separate the plasma. One portion of tumor, spleen and lymph nodes were collected for flow cytometric analysis. […]

CT26-FL3 cells [2] = test: CRT translocation by immunofluorescence (ICD); assay type: cell-based, murine; conditions: free Q alone 0.07 μM, 4 h
Experimental: (§1) CT26-FL3 cells were seeded in 35-mm cell culture dishes with glass bottom at the density of 2×10^5 per dish and incubated for 24 h before treatment. The cell culture medium was removed and replenished with different combination of Q and A containing media at the indicated concentrations for 4 h for CRT detection and for 8 h for HMGB1 detection. Cells were fixed and washed 3 times. A primary antibody, anti-CRT antibody (ab2907, 1:500, Abcam), diluted in cold blocking buffer (10% goat serum in PBS), was added for 60 min. After three washes in cold PBS, cells were then incubated for 60 min with the Alexa Fluor® 488 Goat Anti-Rabbit (IgG) (ab150077, 1:500, Abcam) diluted in a cold blocking buffer. Cells were fixed with 4% PFA for 20 min, and DAPI Mounting Medium was added for nuclear staining. For intracellular HMGB1 staining, cells were fixed and washed 3 times. Afterwards, cells were permeabilized with 0.1% Triton X-100 containing blocking buffer for 10 min, and rinsed three times with PBS, and nonspecific binding sites were blocked for 30 min A primary antibody for HMGB1 (ab79823, 1:500, Abcam) was added for 60 min. Cells were then incubated for 60 min with the Alexa Fluor® 488 Goat Anti-Rabbit (IgG) (ab150077, 1:500, Abcam) diluted in a cold blocking buffer. Cells were fixed with 4% PFA for 20 min, and DAPI Mounting Medium was added for nuclear staining. […]

CT26-FL3 cells [3] = test: HMGB1 release by immunofluorescence (ICD); assay type: cell-based, murine
Experimental: as §1

CT26-FL3 cells [4] = test: MTT cytotoxicity and combination index (Chou and Talalay); assay type: cell-based, murine; conditions: Mus musculus, 24 h incubation, read-out: IC50 of Q alone
Experimental: The cytotoxicity of free Q, free A and drugs combination against CT26-FL3 cells were assessed using the MTT (3-[4,5-dimethylthiazol-2-yl]-2,5-diphenyltetrazolium bromide) method. Zhang et al., 2017. Cells were seeded in 96-well plates (5×10^3 cells per well) and incubated for 24 h before treatment. Then the culture medium was withdrawn and fresh medium containing free drugs and drug combination with a series of concentration were added to each well. Following 24-h incubation, cell viability was determined by MTT assay. The synergy of Q and A was evaluated by using the Chou and Talalay method to calculate the combination index (CI). Zhang et al., 2014; Chou et al., 1984. CI was calculated by using the following equation (1): CI=(D)1/(Dx)1+(D)2/(Dx)2 (1) […]

[5] = Maximum concentration of free drug in lecithin suspension (sink condition); assay type: physicochemical; conditions: lecithin suspension 100 mg/mL
Experimental: The release behaviors of Q and A from QA-M were investigated by a dialysis method. The QA-M (2 mL) was placed into a preswelled dialysis bag (cutting Mw 8000), which was then immersed into empty lecithin suspension (PC-98T, 100 mg/mL, 100 mL) at 37° C. for 72 hours under stirring at a speed of 100 rpm. The lecithin suspension was formed by film-hydration method followed by sonication and the size of this lecithin suspension was around 100 nm. Sink condition was confirmed by determination of the maximum concentration for free Q and A in the lecithin suspension, which was 0.5 mg/mL and 0.8 mg/mL, respectively. At different time points, 1.0 mL of sample was withdrawn from the release medium, mixed with methanol and measured for the Q and A using the HPLC method mentioned above. The release medium was replenished with an equal volume of fresh medium at 37° C. Sink condition was maintained throughout the experiment. All measurements were performed in triplicate, and the mean values and standard deviations are calculated.

Row | maximum concentration in the lecithin suspension [5] [mg/mL] | SMILES | tumor growth [1] | CRT translocation (CT26-FL3 cells [2]) | HMGB1 release (CT26-FL3 cells [3]; free Q alone 0.33 μM, 8 h) | release of HMGB1 compared to control group (CT26-FL3 cells [3]; single drug: Q 0.33 μM, A 1.3 μM) | pIC50 (CT26-FL3 cells [4])
1 | – | O=c1c(O)c(-c2ccc(O)c(O)c2)oc2cc(O)cc(O)c12 [Q-F, quercetin] | very similar to that of QA-F | – | – | – | –
2 | 0.5 | O=c1c(O)c(-c2ccc(O)c(O)c2)oc2cc(O)cc(O)c12 [Q, quercetin] | – | minimum or undetectable effect | minimum or undetectable effect | undetectable release | 3.83

— patent publication US20220211663A1, “NANO CO-DELIVERY OF QUERCETIN AND ALANTOLACTONE PROMOTES ANTI-TUMOR RESPONSE THROUGH SYNERGISTIC IMMUNOGENIC CELL DEATH FOR MICROSATELLITE-STABLE COLORECTAL CANCER” (The University of North Carolina at Chapel Hill, priority 2019, published 2022)
